Laboratory results as given in patent US12612389B2, “Benzofuran-based N-acylhydrazone derivative and pharmaceutical composition comprising same” (KOREA RESEARCH INSTITUTE OF BIOSCIENCE AND BIOTECHNOLOGY, priority 2019, dated 2026).

Key:
K562/ADR = test: Anti-proliferative activity test in cancer cells exhibiting multidrug resistance (MTT); assay type: cell-based; settings: for Resistance Factor: ratio IC50 K562/ADR to IC50 K562; for IC50: Homo sapiens, 96 h, K562/ADR (multidrug-resistant), 4 days, MTT
Procedure: (§1) HeLa cells (American Type Culture Collection: ATCC, USA), a human cervical cancer cell line, were seeded in a 96-well plate at 3×10^3 cells/well, and the cells were then treated with compounds of Examples or Comparative Example according to the present invention and grown for 2 days. Then, MTT (3-(4,5-dimethylthiazol-2-yl)-2,5-diphenyltetrazolium bromide) reagent was added at 10 μL/well. […] The data shown in Table below are mean values of results obtained by repeating the analysis twice. Specifically, K562 and MCF7 (Bio Evaluation Center, Korea Research Institute of Bioscience and Biotechnology, Korea) and multidrug-resistant cell lines of each of these cell lines, i.e., K562/ADR and MCF7/ADR (Bio Evaluation Center, Korea Research Institute of Bioscience and Biotechnology, Korea), were cultured on microtiter plates (1-3×10^3 cells/well). […] The data shown in Table below are mean values of results obtained by repeating the analysis three times.

MCF7/ADR = test: as above; assay type: cell-based; settings: for Resistance Factor: ratio IC50 MCF7/ADR to IC50 MCF7; for IC50: Homo sapiens, NCI/ADR-RES, 96 h, MCF7/ADR (multidrug-resistant), 4 days, MTT
Procedure: as §1

K562 = test: Anti-proliferative activity test in cancer cells exhibiting multidrug resistance (MTT), parent line; assay type: cell-based; settings: Homo sapiens, 96 h, 4 days
Procedure: as §1

MCF7 = test: as above; assay type: cell-based; settings: Homo sapiens, 96 h, 4 days
Procedure: as §1

HeLa cells = test: Anti-proliferative activity test in HeLa cell line (MTT); assay type: cell-based; settings: Homo sapiens, 48 h, grown for 2 days, mean of 2
Procedure: HeLa cells (American Type Culture Collection: ATCC, USA), a human cervical cancer cell line, were seeded in a 96-well plate at 3×10^3 cells/well, and the cells were then treated with compounds of Examples or Comparative Example according to the present invention and grown for 2 days. Then, MTT (3-(4,5-dimethylthiazol-2-yl)-2,5-diphenyltetrazolium bromide) reagent was added at 10 μL/well. After 2 hours, absorbance was measured at “OD 450” and statistical values were obtained using Prism™6 program. The data shown in Table below are mean values of results obtained by repeating the analysis twice.

Stability test in plasma [1] = assay type: in vitro ADME; set-up: Residue % (180 minutes elapsed), Mean: dose or concentration left out as unconfirmed; settings: 37° C.
Procedure: In order to test the stability (in vivo) of the Example compounds according to the present invention, the compounds of Examples 2, 3, 4, 8 and 15 were administered intravenously, and plasma concentrations over time were observed. In addition, procaine was used as a positive control. Plasma stability was measured three times by administering the test compound at a concentration […] to human, rat, or mouse plasma (90 μL) at 37° C. Results thereof are shown in Table below and FIGS. 3A to 3E.

Stability test in plasma [2] = assay type: in vitro ADME; settings: Rat plasma, 37° C.; for Residue % (180 minutes elapsed), Mean: 5 mM
Procedure: In order to test the stability (in vivo) of the Example compounds according to the present invention, the compounds of Examples 2, 3, 4, 8 and 15 were administered intravenously, and plasma concentrations over time were observed. In addition, procaine was used as a positive control. Plasma stability was measured three times by administering the test compound at a concentration of 5 mM to human, rat, or mouse plasma (90 μL) at 37° C. Results thereof are shown in Table below and FIGS. 3A to 3E.

[3] = Metabolic stability test in liver microsomes; assay type: in vitro ADME; settings: 0.5 mg protein/mL, 37° C.
Procedure: (§2) The test compounds at a concentration of […] were administered in the presence or absence of NADPH (1 mM) to liver […] (0.5 mg protein/mL) of humans, rats and mice, and metabolic stability was tested at 37° C. for 30 minutes. In addition, buspirone was used as a positive control. Results thereof are shown in Table below and FIGS. 4A to 4E.

[4] = Stability in buffer (line of the metabolic stability test); assay type: in vitro ADME
Procedure: as §2

Row | Compound | IC50 (K562) [nM] | IC50 (MCF7) [nM] | IC50 (K562/ADR) [nM] | IC50 (MCF7/ADR) [nM] | IC50 (HeLa cells) [nM] | Residue % (180 minutes elapsed), Mean (Stability test in plasma [1]; Human plasma) [%] | Residue % (180 minutes elapsed), Mean (Stability test in plasma [1]; Mouse plasma) [%] | Residue % (180 minutes elapsed), Mean (Stability test in plasma [2]) [%] | Resistance Factor (K562/ADR) | Resistance Factor (MCF7/ADR) | other results
1 | COc1cc2c(c(OC)c1OC)-c1ccc(OC)c(=O)cc1[C@@H](NC(C)=O)CC2 [Colchicine, colchicine] | – | – | – | – | – | – | – | – | 22.91 | 34.15 | –
2 | Cc1ccc2oc(C(=O)N/N=C/c3c(Cl)n(C)c4ccccc34)cc2c1 [Example 2, (E)-N′-[(2-chloro-1-methyl-1H-indol-3-yl)methylene]-5-methylbenzofuran-2-carbohydrazide] | – | – | – | – | 892 | 90.43 | 55.82 | 75.82 | – | – | half-life at 5 mM (Stability test in plasma [1]; Human plasma): > 3 h; half-life at 5 mM (Stability test in plasma [1]; Mouse plasma): > 3 h; half-life at 5 mM (Stability test in plasma [2]): > 3 h; Residue (%) after culturing for 30 min ([3]; Human, +NADPH): 8.69 ± 0.44%; Residue (%) after culturing for 30 min ([3]; Human, −NADPH): 36.40 ± 1.90%; Residue (%) after culturing for 30 min ([3]; Mouse, +NADPH): 2.84 ± 0.34%; Residue (%) after culturing for 30 min ([3]; Mouse, −NADPH): 11.59 ± 1.06%; Residue (%) after culturing for 30 min ([3]; Rat, +NADPH): 2.99 ± 0.64%; Residue (%) after culturing for 30 min ([3]; Rat, −NADPH): 41.45 ± 0.93%; Residue (%) after culturing for 30 min [4]: 77.94 ± 7.04%
3 | CCOC(=O)Cn1c(Cl)c(/C=N/NC(=O)c2cc3cc(C)ccc3o2)c2ccccc21 [Example 3, ethyl (E)-2-{2-chloro-3-[(2-(5-methylbenzofuran-2-carbonyl)hydrazinylidene)methyl]-1H-indol-1-yl}acetate] | – | – | – | – | 243 | 56.52 | 0.12 | 0.21 | – | – | half-life at 5 mM (Stability test in plasma [1]; Human plasma): > 3 h; half-life at 5 mM (Stability test in plasma [1]; Mouse plasma): 0.0933 h; half-life at 5 mM (Stability test in plasma [2]): 0.0767 h; Residue (%) after culturing for 30 min ([3]; Human, +NADPH): 12.34 ± 0.69%; Residue (%) after culturing for 30 min ([3]; Human, −NADPH): 22.26 ± 0.72%; Residue (%) after culturing for 30 min ([3]; Mouse, +NADPH): 2.50 ± 0.11%; Residue (%) after culturing for 30 min ([3]; Mouse, −NADPH): 6.81 ± 0.17%; Residue (%) after culturing for 30 min ([3]; Rat, +NADPH): 1.39 ± 0.12%; Residue (%) after culturing for 30 min ([3]; Rat, −NADPH): 8.53 ± 0.46%; Residue (%) after culturing for 30 min [4]: 89.02 ± 4.39%
4 | CCOCCn1c(Cl)c(/C=N/NC(=O)c2cc3cc(NC(C)=O)ccc3o2)c2ccccc21 [Example 19, (E)-N′-{2-[2-((2-chloro-1-(2-ethoxyethyl)-1H-indol-3-yl)methylene]hydrazine-1-carbonyl}benzofuran-5-yl)acetamide] | – | – | – | – | 4520 | – | – | – | – | – | –
5 | CCOC(=O)Cn1c(C)c(/C=N/NC(=O)c2cc3c(OC)cc(OC)cc3o2)c2ccccc21 [Example 20, (E)-ethyl-2-(3-((2-(4,6-dimethoxybenzofuran-2-carbonyl) hydrazinylidene)methyl)-2-methyl-1H-indol-1-yl)acetate] | – | – | – | – | 500 | – | – | – | – | – | –
6 | CCN(CC)CCOC(=O)c1ccc(N)cc1 [Procaine, procaine, reference compound] | – | – | – | – | – | 0.45 | 1.06 | 1.89 | – | – | –

Further lines, with some results ahead:

Row | IC50 (K562) [nM] | IC50 (MCF7) [nM] | IC50 (K562/ADR) [nM] | IC50 (MCF7/ADR) [nM] | IC50 (HeLa cells) [nM] | Residue % (180 minutes elapsed), Mean (Stability test in plasma [1]; Human plasma) [%] | Residue % (180 minutes elapsed), Mean (Stability test in plasma [1]; Mouse plasma) [%] | Residue % (180 minutes elapsed), Mean (Stability test in plasma [2]) [%] | Compound | Resistance Factor (K562/ADR) | Resistance Factor (MCF7/ADR) | other results
7 | 2.85 | 15.4 | 2190 | 2610 | – | – | – | – | COc1cccc2c1C(=O)c1c(O)c3c(c(O)c1C2=O)C[C@@](O)(C(=O)CO)C[C@@H]3O[C@H]1C[C@H](N)[C@H](O)[C@H](C)O1 [Doxorubicin, doxorubicin] | 767.91 | 169.57 | –
8 | 1.35 | 2.35 | 700 | 1030 | – | – | – | – | CC(=O)O[C@H]1C(=O)[C@@]2(C)[C@H]([C@H](OC(=O)c3ccccc3)[C@]3(O)C[C@H](OC(=O)[C@H](O)[C@@H](NC(=O)c4ccccc4)c4ccccc4)C(C)=C1C3(C)C)[C@]1(OC(C)=O)CO[C@@H]1C[C@@H]2O [Taxol, taxol] | 519.6 | 438.38 | –
9 | 17.1 | 5.28 | 268 | 95.9 | – | – | – | – | CC[C@]1(O)C[C@@H]2CN(CCc3c([nH]c4ccccc34)[C@@](C(=O)OC)(c3cc4c(cc3OC)N(C)[C@H]3[C@@](O)(C(=O)OC)[C@H](OC(C)=O)[C@]5(CC)C=CCN6CC[C@]43[C@@H]65)C2)C1 [Vinblastine, vinblastine] | 15.63 | 18.17 | –
